Details: 303.16 K, Liquid, Vibrating tube method

CCCC(=O)OCC(COC(=O)CCC)(COC(=O)CCC)COC(=O)CCC [pentaerythritol tetrabutyrate]
Details	mass density [kg/m3]
6790.5 kPa	1046.6
6817.3 kPa	1046.7
6849.6 kPa	1046.6
6876.7 kPa	1046.6
6909 kPa	1046.7
6936.8 kPa	1046.6
6965.3 kPa	1046.7
6993.5 kPa	1046.7
7274.1 kPa	1047
7311.4 kPa	1046.9
7343 kPa	1046.9
7374.1 kPa	1046.9
7412.9 kPa	1047
7446.2 kPa	1047
7479.9 kPa	1047.1
7515.1 kPa	1047
7541.7 kPa	1047.1
7566.7 kPa	1047.1
7596.6 kPa	1047.2
7622.5 kPa	1047.1
7647.8 kPa	1047.1
7673.7 kPa	1047.1
7703.6 kPa	1047.1
7729.5 kPa	1047.2
7755.5 kPa	1047.2
7786.9 kPa	1047.3
7813.7 kPa	1047.3
7840.6 kPa	1047.2
7867.9 kPa	1047.3
7895 kPa	1047.2
7927.7 kPa	1047.2
7955 kPa	1047.3
7982.8 kPa	1047.3
8016.1 kPa	1047.4
8044.7 kPa	1047.3
8073.5 kPa	1047.3
8102.7 kPa	1047.4
8125 kPa	1047.5
8147.9 kPa	1047.5
8175.2 kPa	1047.5
8198.5 kPa	1047.5
8222.3 kPa	1047.4
8245.7 kPa	1047.6
8273.3 kPa	1047.4
8297.3 kPa	1047.5
8325.9 kPa	1047.5
8350.8 kPa	1047.6
8373.4 kPa	1047.6
8504.8 kPa	1047.7
8527.9 kPa	1047.7
8547 kPa	1047.6
8565.8 kPa	1047.7
8588.8 kPa	1047.8
8607.6 kPa	1047.8
8630.3 kPa	1047.7
8649.3 kPa	1047.8
8672.8 kPa	1047.8
8693.1 kPa	1047.8
8716 kPa	1047.9
8735.5 kPa	1047.8
8759.5 kPa	1047.9
8783.6 kPa	1047.9
8803.1 kPa	1047.9
8823.4 kPa	1047.9
8847.6 kPa	1047.9
8867.8 kPa	1048
8892.1 kPa	1047.9
8916.2 kPa	1047.9
8936.4 kPa	1047.9
8960.7 kPa	1048
8981.7 kPa	1047.9
9006.9 kPa	1047.9
9027.7 kPa	1048
9053.1 kPa	1047.9
9078.7 kPa	1048.1
9099.8 kPa	1048
9121 kPa	1048.1
9146.6 kPa	1048
9172.2 kPa	1048.1
9193.2 kPa	1048.1
9244.7 kPa	1048.2
9266.6 kPa	1048.2
9293.3 kPa	1048.3
9315.9 kPa	1048.3
9343.1 kPa	1048.2
9366.4 kPa	1048.3
9391.5 kPa	1048.3
9419 kPa	1048.4
9442.1 kPa	1048.2
9469.3 kPa	1048.3
9492.3 kPa	1048.3
9519.7 kPa	1048.4
9547.7 kPa	1048.4
9571.3 kPa	1048.5
9599.9 kPa	1048.3
9623.9 kPa	1048.5
9652 kPa	1048.3
9680.6 kPa	1048.5
9705 kPa	1048.4
9730.4 kPa	1048.5
9759.3 kPa	1048.5
9783.6 kPa	1048.5
9812.9 kPa	1048.6
9843 kPa	1048.5
9868 kPa	1048.4
9898.3 kPa	1048.5
9923.1 kPa	1048.5
9953.2 kPa	1048.6
9984.1 kPa	1048.6
10010 kPa	1048.7
10041 kPa	1048.7
10067 kPa	1048.7
10100 kPa	1048.8
10126 kPa	1048.6
10159 kPa	1048.7
10186 kPa	1048.8
10218 kPa	1048.7
10245 kPa	1048.7
10278 kPa	1048.8
10305 kPa	1048.7
10337 kPa	1048.9
10371 kPa	1048.7
10399 kPa	1048.8
10432 kPa	1048.9
10461 kPa	1048.9
10496 kPa	1048.9
10525 kPa	1048.8
10560 kPa	1048.9
10589 kPa	1049
10624 kPa	1049
10658 kPa	1049.1
10687 kPa	1049
10723 kPa	1049.1
10753 kPa	1049
10789 kPa	1049.2
10820 kPa	1049.1
10857 kPa	1049.1
10894 kPa	1049.1
10924 kPa	1049.2
10961 kPa	1049.3
10993 kPa	1049.2
11031 kPa	1049.3
11063 kPa	1049.3
11101 kPa	1049.3
11133 kPa	1049.4
11171 kPa	1049.3
11210 kPa	1049.3
11243 kPa	1049.3
11283 kPa	1049.4
11317 kPa	1049.5
11359 kPa	1049.5
11394 kPa	1049.4
11436 kPa	1049.6
11472 kPa	1049.6
11511 kPa	1049.6
11541 kPa	1049.5
11577 kPa	1049.6
11607 kPa	1049.6
11641 kPa	1049.7
11666 kPa	1049.6
11688 kPa	1049.6
11714 kPa	1049.7
11736 kPa	1049.8
11763 kPa	1049.7
11789 kPa	1049.7
11811 kPa	1049.8
11838 kPa	1049.7
11865 kPa	1049.9
11888 kPa	1049.8
11910 kPa	1049.8
11936 kPa	1049.9
11964 kPa	1049.8
11987 kPa	1049.8
12015 kPa	1049.9
12038 kPa	1049.9
12068 kPa	1049.8
12093 kPa	1049.9
12117 kPa	1050
12145 kPa	1050
12173 kPa	1050
12197 kPa	1050
12221 kPa	1050
12250 kPa	1050.1
12278 kPa	1050
12302 kPa	1050.2
12331 kPa	1050.1
12356 kPa	1050.1
12385 kPa	1050.2
12416 kPa	1050.1
12441 kPa	1050.1
12466 kPa	1050.1
12496 kPa	1050.2
12521 kPa	1050.1
12551 kPa	1050.3
12576 kPa	1050.2
12607 kPa	1050.3
12637 kPa	1050.3
12663 kPa	1050.3
12694 kPa	1050.2
12720 kPa	1050.2
12751 kPa	1050.3
12782 kPa	1050.3
12808 kPa	1050.4
12840 kPa	1050.4
12867 kPa	1050.4
12899 kPa	1050.5
12926 kPa	1050.4
12959 kPa	1050.5
12986 kPa	1050.6
13019 kPa	1050.6
13051 kPa	1050.6
13078 kPa	1050.5
13111 kPa	1050.6
13173 kPa	1050.6
13201 kPa	1050.6
13235 kPa	1050.5
13264 kPa	1050.6
13297 kPa	1050.5
13332 kPa	1050.7
13360 kPa	1050.6
13395 kPa	1050.8
13424 kPa	1050.7
13459 kPa	1050.9
13493 kPa	1050.9
13522 kPa	1050.8
13558 kPa	1050.8
13589 kPa	1050.9
13625 kPa	1050.9
13656 kPa	1050.9
13693 kPa	1050.9
13723 kPa	1051
13761 kPa	1051
13791 kPa	1050.9
13829 kPa	1050.9
13859 kPa	1051.1
13897 kPa	1051
13934 kPa	1051
13966 kPa	1050.9
14003 kPa	1051.1
14035 kPa	1051.2
14072 kPa	1051.1
14111 kPa	1051.1
14144 kPa	1051.1
14184 kPa	1051.2
14217 kPa	1051.3
14257 kPa	1051.4
14291 kPa	1051.4
14332 kPa	1051.2
14367 kPa	1051.3
14409 kPa	1051.4
14443 kPa	1051.4
14483 kPa	1051.4
14513 kPa	1051.5
14547 kPa	1051.5
14581 kPa	1051.5
14609 kPa	1051.5
14643 kPa	1051.4
14672 kPa	1051.4
14706 kPa	1051.5
14740 kPa	1051.5
14770 kPa	1051.6
14804 kPa	1051.6
14839 kPa	1051.7
14868 kPa	1051.5
14907 kPa	1051.6
14937 kPa	1051.7
14972 kPa	1051.7
15002 kPa	1051.8
15038 kPa	1051.9
15069 kPa	1051.7
15106 kPa	1051.8
15136 kPa	1051.8
15174 kPa	1051.7
15210 kPa	1051.9
15242 kPa	1051.9
15279 kPa	1051.8
15312 kPa	1051.9
15345 kPa	1051.9
15384 kPa	1052.1
15415 kPa	1052
15453 kPa	1052
15492 kPa	1052
15525 kPa	1052.1
15564 kPa	1052.2
15597 kPa	1052.1
15637 kPa	1052.1
15671 kPa	1052.1
15710 kPa	1052.1
15743 kPa	1052.1
15783 kPa	1052.3
15823 kPa	1052.2
15857 kPa	1052.2
15897 kPa	1052.3

Source: the NIST ThermoML archive (doi:10.1021/je060271a)
